Biological target: T1, IBD (ItcR itaconate-binding domain) (Yersinia pseudotuberculosis, UniProt A0A0H3B558)
T1 construct: gene YPK_2265
Details: protein:itaconate molar ratio 1:100, Bis-Tris pH 6.5, PEG300, 20 °C; SeMet form 7W06

T1 sequence (A0A0H3B558 80-292 limits assumed): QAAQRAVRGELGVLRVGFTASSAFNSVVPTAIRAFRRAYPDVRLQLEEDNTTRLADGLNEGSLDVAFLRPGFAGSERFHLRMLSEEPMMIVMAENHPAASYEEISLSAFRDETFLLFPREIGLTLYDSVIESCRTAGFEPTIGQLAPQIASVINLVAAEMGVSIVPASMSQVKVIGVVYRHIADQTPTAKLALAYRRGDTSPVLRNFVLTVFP

Question: `C=C(CC(=O)O)C(=O)O` [itaconate] was tested. Which structure of complex did it give?
Answer: crystal structure of IBD without or with itaconate binding was determined

Reference: paper PMC9636186 (Nature Communications, 2022)
